Results published in ChEMBL document CHEMBL5113477, “Membrane acting Povarov-Doebner derived compounds potently disperse preformed multidrug resistant Gram-positive bacterial biofilms” (Eur J Med Chem, 2022).
≈ marks a conversion by molar mass, not a printed value. Calls of active or inactive are those of the source. The calls are words filed in the database; no cut-off is given here.

Key:
Staphylococcus aureus [1] = experiment: Inhibition of DNA synthesis in Staphylococcus aureus ATCC 25923 at 0.25 to 8 ug/ml by [methyl]-thymidine incorporation assay; assay type: functional, organism-based; settings: dose 0.25-8 µg/ml
Staphylococcus aureus [2] = experiment: Antibacterial activity against methicillin-resistant Staphylococcus aureus USA 300 (ARLG 1570) assessed as reduction in visible bacterial growth incubated for 18 to 20 hrs by CLSI based broth microdilution analysis; assay type: functional; settings: time 18-20 hrs
Staphylococcus aureus [3] = experiment: Bactericidal activity against exponential phase of methicillin-resistant Staphylococcus aureus USA 300 at 1 to 4 times MIC incubated for 2 to 8 hrs by time kill assay; assay type: functional, organism-based; settings: time 2-8 hrs
Staphylococcus aureus [4] = experiment: Antibacterial activity against methicillin-resistant Staphylococcus aureus USA 300 (ARLG 1649) assessed as reduction in visible bacterial growth incubated for 18 to 20 hrs by CLSI based broth microdilution analysis; assay type: functional; settings: time 18-20 hrs
Staphylococcus aureus [5] = experiment: Antibacterial activity against methicillin-resistant Staphylococcus aureus ATCC 33592 assessed as reduction in visible bacterial growth incubated for 18 to 20 hrs by CLSI based broth microdilution analysis; assay type: functional; settings: time 18-20 hrs
Staphylococcus aureus [6] = experiment: (§1) Synergistic antibiofilm activity against methicillin-resistant Staphylococcus aureus USA 300 in TSB broth assessed as dispersal of glucose-induced biofilm at 1 ug/ml preincubated with glucose for 48 hrs followed by compound addition and further incubated for 24 hrs in presence of Nitroxoline by crystal violet staining based assay; assay type: functional; settings: dose 1 µg/ml
Staphylococcus aureus [7] = experiment: as §1, with “by measuring fractional inhibitory concentration index” for “at 1 ug/ml”, “based checkerboard” for “based”; assay type: functional
Staphylococcus aureus [8] = experiment: as §1, with “4” for “1”, “Bithionol” for “Nitroxoline”; assay type: functional; settings: dose 4 µg/ml
Enterococcus faecalis [9] = experiment: (§2) Synergistic antibiofilm activity against vancomycin-resistant Enterococcus faecalis ATCC 51575 in TSB broth assessed as dispersal of glucose-induced biofilm by measuring fractional inhibitory concentration index preincubated with glucose for 48 hrs followed by compound addition and further incubated for 24 hrs in presence of Nitroxoline by crystal violet staining based checkerboard assay; assay type: functional
Staphylococcus aureus [10] = experiment: Antibacterial activity against methicillin-resistant Staphylococcus aureus USA 300 (ARLG 1568) assessed as reduction in visible bacterial growth incubated for 18 to 20 hrs by CLSI based broth microdilution analysis; assay type: functional; settings: time 18-20 hrs
Enterococcus faecium [11] = experiment: as §1, with “vancomycin-resistant Enterococcus faecium ATCC 700221” for “methicillin-resistant Staphylococcus aureus USA 300”, “1 ug/ml Bithionol and AgNO3” for “Nitroxoline”, “analysis” for “assay”; assay type: functional; settings: dose 1 µg/ml
Enterococcus faecium [12] = experiment: as §2, with “faecium” for “faecalis”, “700221” for “51575”, “Bithionol” for “Nitroxoline”; assay type: functional
Enterococcus faecium [13] = experiment: Antibiofilm activity against vancomycin-resistant Enterococcus faecium ATCC 700221 in TSB broth assessed as dispersal of glucose-induced biofilm at 8 to 16 ug/ml preincubated with glucose for 48 hrs followed by compound addition and measured after 24 hrs by crystal violet staining based analysis; assay type: functional; settings: dose 8-16 µg/ml, at 8 to 16 µg/mL
Enterococcus faecium [14] = experiment: as §2, with “faecium” for “faecalis”, “700221” for “51575”, “biofilm” for “biofilm by measuring fractional inhibitory concentration index”; assay type: functional
Enterococcus faecium [15] = experiment: (§3) Synergistic antibiofilm activity against vancomycin-resistant Enterococcus faecium ATCC 700221 in TSB broth assessed as dispersal of glucose-induced biofilm by measuring Nitroxoline MBEC preincubated with glucose for 48 hrs followed by compound addition and measured after 24 hrs by crystal violet staining based checkerboard assay; assay type: functional
Staphylococcus aureus [16] = experiment: Antibiofilm activity against methicillin-resistant Staphylococcus aureus USA 300 in TSB broth assessed as dispersal of glucose-induced biofilm at 8 to 16 ug/ml preincubated with glucose for 48 hrs followed by compound addition and measured after 24 hrs by crystal violet staining based analysis; assay type: functional; settings: dose 8-16 µg/ml, at 8 to 16 µg/mL
Staphylococcus aureus [17] = experiment: Antibiofilm activity against methicillin-resistant Staphylococcus aureus USA 300 in TSB broth assessed as dispersal of glucose-induced biofilm preincubated with glucose for 48 hrs followed by compound addition and measured after 24 hrs by crystal violet staining based analysis; assay type: functional
Staphylococcus aureus [18] = experiment: Antibacterial activity against methicillin-resistant Staphylococcus aureus USA 300 (ARLG 1663) assessed as reduction in visible bacterial growth incubated for 18 to 20 hrs by CLSI based broth microdilution analysis; assay type: functional; settings: time 18-20 hrs
Enterococcus faecalis [19] = experiment: Antibiofilm activity against vancomycin-resistant Enterococcus faecalis ATCC 51575 in TSB broth assessed as dispersal of glucose-induced biofilm at 8 to 16 ug/ml preincubated with glucose for 48 hrs followed by compound addition and measured after 24 hrs by crystal violet staining based analysis; assay type: functional; settings: dose 8-16 µg/ml, at 8 to 16 µg/mL
Erythrocyte = experiment: Hemolytic activity in sheep RBC at 10 times MIC incubated for 30 mins by spectrophotometry; assay type: toxicity, cell-based, Ovis aries; settings: 0.5 h
Enterococcus faecalis [20] = experiment: as §2, with “Bithionol” for “Nitroxoline”; assay type: functional
Staphylococcus aureus [21] = experiment: Inhibition of protein synthesis in Staphylococcus aureus ATCC 25923 at 0.25 to 8 ug/ml by [3H]-I-leucine incorporation assay; assay type: functional; settings: dose 0.25-8 µg/ml
Staphylococcus aureus [22] = experiment: Bactericidal activity against persister methicillin-resistant Staphylococcus aureus USA 300 at 1 times MIC incubated for 2 to 8 hrs by time kill assay; assay type: functional, organism-based; settings: time 2-8 hrs
Enterococcus faecium [23] = experiment: Antibacterial activity against vancomycin-resistant Enterococcus faecium ATCC 700221 assessed as reduction in visible bacterial growth incubated for 18 to 20 hrs by CLSI based broth microdilution analysis; assay type: functional; settings: time 18-20 hrs
Enterococcus faecium [24] = experiment: Synergistic antibiofilm activity against vancomycin-resistant Enterococcus faecium ATCC 700221 in TSB broth assessed as dispersal of glucose-induced biofilm at 2 ug/ml preincubated with glucose for 48 hrs followed by compound addition and further incubated for 24 hrs in presence of 0.5 ug/ml Bithionol and AgNO3 by crystal violet staining based analysis; assay type: functional; settings: dose 2 µg/ml
Staphylococcus aureus [25] = experiment: Antibacterial activity against methicillin-resistant Staphylococcus aureus USA 300 (ARLG 1567) assessed as reduction in visible bacterial growth incubated for 18 to 20 hrs by CLSI based broth microdilution analysis; assay type: functional; settings: time 18-20 hrs
Cell membrane = experiment: Induction of membrane permeabilization in Staphylococcus aureus ATCC 25923 measured every 3 mins for 180 mins by sytox green dye based flow cytometry analysis; assay type: subcellular; settings: dose 0.5-4 µg/ml, DDE = dose-dependent effect
Staphylococcus aureus [26] = experiment: Bactericidal activity against persister methicillin-resistant Staphylococcus aureus USA 300 at 1 times MIC incubated for 4 hrs by time kill assay; assay type: functional
Staphylococcus aureus [27] = experiment: as §1, with “SEM analysis” for “crystal violet staining based assay”; assay type: functional, organism-based; settings: dose 1.0 µg/ml
Enterococcus faecalis [28] = experiment: as §3, with “faecalis” for “faecium”, “51575” for “700221”; assay type: functional
Staphylococcus aureus [29] = experiment: Inhibition of RNA synthesis in Staphylococcus aureus ATCC 25923 at 0.25 to 8 ug/ml by [5-3H]-uridine incorporation assay; assay type: functional, organism-based; settings: dose 0.25-8 µg/ml
Enterococcus faecium [30] = experiment: as §3, with “[…]” for “Nitroxoline”; assay type: functional

**Q.** Which results are given for `Oc1ccc([C@@H]2Nc3ccc(S(F)(F)(F)(F)F)cc3[C@H]3[C@@H]4CC[C@@H](C4)[C@H]32)cc1`?
**A.** inhibition (Staphylococcus aureus [1]): Active; MBC (Staphylococcus aureus [2]): 2 µg/mL (≈ 4.79 µM); MIC (Staphylococcus aureus [2]): 1 µg/mL (≈ 2.4 µM); Activity (Staphylococcus aureus [3]): Active; MBC (Staphylococcus aureus [4]): 2 µg/mL (≈ 4.79 µM); MIC (Staphylococcus aureus [4]): 1 µg/mL (≈ 2.4 µM); MBC (Staphylococcus aureus [5]): 1 µg/mL (≈ 2.4 µM); MIC (Staphylococcus aureus [5]): 2 µg/mL (≈ 4.79 µM); Activity (Staphylococcus aureus [6]): >80%; fractional inhibitory concentration index (FICI) (Staphylococcus aureus [7]): 0.28; Activity (Staphylococcus aureus [8]): >80%; fractional inhibitory concentration index (FICI) (Enterococcus faecalis [9]): 0.38; MBC (Staphylococcus aureus [10]): 2 µg/mL (≈ 4.79 µM); MIC (Staphylococcus aureus [10]): 2 µg/mL (≈ 4.79 µM); Activity (Enterococcus faecium [11]): >70%; fractional inhibitory concentration index (FICI) (Enterococcus faecium [12]): 0.28; Activity (Enterococcus faecium [13]): 70%; MBEC (Enterococcus faecium [14]): 4 µg/mL; MBEC (Enterococcus faecium [15]): 0.5 µg/mL; Activity (Staphylococcus aureus [16]): 70%; MBEC (Staphylococcus aureus [17]): 32 µg/mL; MBC (Staphylococcus aureus [18]): 2 µg/mL (≈ 4.79 µM); MIC (Staphylococcus aureus [18]): 0.5 µg/mL (≈ 1.2 µM); Activity (Enterococcus faecalis [19]): 70%; Activity (Erythrocyte): Non-Toxic; fractional inhibitory concentration index (FICI) (Enterococcus faecalis [20]): 0.5; inhibition (Staphylococcus aureus [21]): Active; Activity (Staphylococcus aureus [22]): Active; MBC (Enterococcus faecium [23]): 2 µg/mL (≈ 4.79 µM); MIC (Enterococcus faecium [23]): 2 µg/mL (≈ 4.79 µM); Activity (Enterococcus faecium [24]): >70%; MBC (Staphylococcus aureus [25]): 2 µg/mL (≈ 4.79 µM); MIC (Staphylococcus aureus [25]): 2 µg/mL (≈ 4.79 µM); Activity (Cell membrane): Dde; Activity (Staphylococcus aureus [26]): 100%; Activity (Staphylococcus aureus [27]): Active; MBEC (Enterococcus faecalis [28]): 2 µg/mL; inhibition (Staphylococcus aureus [29]): Active; MBEC (Enterococcus faecium [30]): 2 µg/mL
